# Source: PMC6934184, “Selective DNA-PKcs inhibition extends the therapeutic index of localized radiotherapy and chemotherapy” (The Journal of Clinical Investigation, 2019)
# Biological target: T1, RPS6KA6 (RSK4) (Homo sapiens, UniProt Q9UK32)
# T1 construct: purchased Thermo Fisher Scientific (Life Technologies) SelectScreen
# Experiment: SelectScreen Z'LYTE
# Assay type: biochemical
# Summary of the method: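 NU5455 was profiled across the SelectScreen Broad panel of kinase activity and binding assays. Z'LYTE reactions such as CSF1R ran at apparent Km ATP, while the Adapta CAMK1 assay used ATP listed as 10. Values are given as percent.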
# T1 sequence (Q9UK32 whole entry): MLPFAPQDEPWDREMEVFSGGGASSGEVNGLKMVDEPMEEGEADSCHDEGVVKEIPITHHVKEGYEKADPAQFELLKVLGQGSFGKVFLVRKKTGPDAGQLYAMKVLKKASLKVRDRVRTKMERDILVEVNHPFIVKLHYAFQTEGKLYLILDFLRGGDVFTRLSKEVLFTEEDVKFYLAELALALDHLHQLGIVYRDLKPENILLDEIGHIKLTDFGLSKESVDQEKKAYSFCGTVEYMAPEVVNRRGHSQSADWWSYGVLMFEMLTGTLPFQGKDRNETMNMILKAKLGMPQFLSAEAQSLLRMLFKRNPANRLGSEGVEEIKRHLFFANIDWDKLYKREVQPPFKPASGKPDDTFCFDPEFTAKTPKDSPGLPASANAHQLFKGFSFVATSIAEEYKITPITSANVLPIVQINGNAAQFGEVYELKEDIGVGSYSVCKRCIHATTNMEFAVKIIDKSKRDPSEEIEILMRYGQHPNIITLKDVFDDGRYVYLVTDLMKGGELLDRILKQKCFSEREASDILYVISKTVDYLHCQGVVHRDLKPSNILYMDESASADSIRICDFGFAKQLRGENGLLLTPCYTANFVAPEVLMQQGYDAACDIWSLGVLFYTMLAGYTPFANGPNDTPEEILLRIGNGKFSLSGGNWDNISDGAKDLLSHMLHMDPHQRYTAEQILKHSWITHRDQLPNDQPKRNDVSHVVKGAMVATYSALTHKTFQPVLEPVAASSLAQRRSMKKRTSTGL
smiles,measurement,value
CN(C(=O)CN1CCOCC1)c1ccc2sc3c(-c4cccc5c(=O)cc(N6CC7CCC(C6)O7)oc45)cccc3c2c1 [NU5455],inhibition at 1 µM,3.8%
